According to US20160377635A1, “Measurement of Oxytocin and Vasopressin” (Martin-Protean LLC, priority 2013, published 2016):

Experiments:
[1] = disulfide exchange with plasma thiols in the presence of air; assay type: physicochemical
Procedure: (§1) Oxytocin and vasopressin undergo disulfide exchange with abundant thiol containing compounds under aerobic conditions like those found in blood plasma. […] If albumin (1 mM) is added to that mixture all detectable oxytocin and vasopressin sequester with albumin upon acetone precipitation. Oxytocin immunoreactivity in plasma is associated with high molecular weight species (Szeto et al). When beta-mercaptoethanol (1 M) and histamine (30 mM) are added to plasma, oxytocin and vasopressin in the 1-100 nM range were recovered rather than the 1-100 pM range recovered without thiols or reported routinely with existing commercially available immunoreactivity tests. The mid nanomolar range is much more consistent with the concentrations required in biological assays for these compounds, such as inducing the lactation reflect with rabbit mammary tissue. Nanomolar concentrations for oxytocin and vasopressin are also far more consistent with the doses required for either peptide in intervention regimes.
Incubating oxytocin and vasopressin them with glutathione at its plasma concentration in the presence of air (as in blood) induces oxytocin and vasopressin to disulfide exchange with glutathione and undergo additional oxidation resulting in the accumulation of diglutathione adducts (FIGS. 4A-C). This additional oxidation-containing product accumulates even in the presence of a vast excess of reducing equivalents in the form of remaining excess reduced glutathione. The introduction of air lead to a disulfide exchange result distinct from that observed in the published literature. The disulfide exchange is inhibited by EDTA which is added to most blood as a preservative. In the body the hormones undergo exchange, but in collected blood the EDTA will inhibit diglutathione formation unless the redox state of the collected blood is perturbed, as FIG. 5.

[2] = target: albumin (Homo sapiens, UniProt P02768); experiment: incubation with free thiol containing albumin, acetone precipitation; assay type: in vitro ADME
Procedure: as §1
Acetone extraction of the incubation clears oxytocin and vasopressin from the solution into the pellet with the albumin. In one embodiment, exceptionally short half-life of oxytocin is measured with immunoreactivity on acetone extracted fractions. Observation of disulfide exchange mediated accumulation of oxytocin on high molecular weight proteins in the plasma.

[3] = system: excised and bathed section of mammary gland tissue; settings: cited from earlier work
[4] = reduced glutathione (1 mM) and oxygen, peptide ~10 nM
[5] = reduced glutathione, reduced cysteine (0.5 mM) and oxygen

Chain of albumin (P02768 25-609, species assumed): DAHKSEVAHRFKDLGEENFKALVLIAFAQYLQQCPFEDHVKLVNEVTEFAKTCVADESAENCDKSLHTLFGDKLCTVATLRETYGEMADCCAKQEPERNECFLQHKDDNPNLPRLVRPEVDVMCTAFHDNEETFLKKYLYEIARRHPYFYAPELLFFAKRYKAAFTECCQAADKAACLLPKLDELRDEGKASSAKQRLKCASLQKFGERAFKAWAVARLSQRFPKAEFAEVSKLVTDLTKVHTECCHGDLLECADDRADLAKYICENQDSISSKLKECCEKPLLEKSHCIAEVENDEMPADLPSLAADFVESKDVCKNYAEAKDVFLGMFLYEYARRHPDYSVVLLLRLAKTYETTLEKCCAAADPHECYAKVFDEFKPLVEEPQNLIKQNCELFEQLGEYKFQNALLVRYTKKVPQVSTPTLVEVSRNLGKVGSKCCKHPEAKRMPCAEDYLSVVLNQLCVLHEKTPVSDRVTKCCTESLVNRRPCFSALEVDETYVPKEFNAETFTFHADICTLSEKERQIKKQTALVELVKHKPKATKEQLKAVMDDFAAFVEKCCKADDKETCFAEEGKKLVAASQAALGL

SMILES | adduct formation by disulfide exchange [1, 4] | adduct formation by disulfide exchange [1, 5] | adsorption to albumin ([2]; pH 7.4) | linear response range for contraction response [3] [ng/mL] | adsorption to albumin ([2]; pH 7.4, room temperature (or 37° C.), with or without glutathione and cysteine)
CC[C@H](C)[C@@H]1NC(=O)[C@H](Cc2ccc(O)cc2)NC(=O)[C@@H](N)CSSC[C@@H](C(=O)N2CCC[C@H]2C(=O)N[C@@H](CC(C)C)C(=O)NCC(N)=O)NC(=O)[C@H](CC(N)=O)NC(=O)[C@H](CCC(N)=O)NC1=O [oxytocin] | form diglutathione adducts | form dicysteine adducts | quantitative adsorption to albumin | 1 to 20 | –
NC(=O)CC[C@@H]1NC(=O)[C@H](Cc2ccccc2)NC(=O)[C@H](Cc2ccc(O)cc2)NC(=O)[C@@H](N)CSSC[C@@H](C(=O)N2CCC[C@H]2C(=O)N[C@@H](CCCN=C(N)N)C(=O)NCC(N)=O)NC(=O)[C@H](CC(N)=O)NC1=O [vasopressin] | form diglutathione adducts | form dicysteine adducts | – | – | quantitative adsorption to albumin
